Like-named read-outs stand apart in the source and are kept apart here.
Experiments:
Human Serum Albumin [1] = details: cited from earlier work
HSA [2] = target: T1, HSA (Homo sapiens, UniProt P02768); assay: Bromophenol blue-HSA binding and competitive displacement by bilirubin, ultrafiltration, 590 nm
T1 construct: purchased Pentex, Miles Laboratories, Inc
From the text: In this Example, a solution assay for bilirubin in accord with the method of the present invention is illustrated. […] Using an Amicon Ultraflo Membrane Cone CF-25 (having a molecular weight cutoff of 25,000 daltons) in an ultrafiltration technique as described by U. Kragh-Hansen et. al., Biochim. et Biophys.

HSA [3] = target: T1, HSA; assay: ANS-HSA complex solution assay, fluorescence (ANS binding and displacement by bilirubin)
Experimental: Where the detectable ligand used in the following Examples was a fluorescent probe, arbitrary fluorescence, F, was recorded both immediately before and after addition of bilirubin (B) to the complex. The difference in these F values (i.e. ΔF) was then expressed as a percentage value by arbitrarily designating the F value for the complex at 100 prior to addition of any bilirubin analyte to the complex (i.e. at zero B concentration). A series of Δ F values were then plotted for a given complex having a constant D/P ratio against a series of liquid test samples containing varying B concentrations. As a result, one obtained a calibration curve for that complex. A liquid test sample containing an unknown amount of B, could then be evaluated by the Δ F value for that sample using the calibrated complex and then locating this Δ F value on the previously prepared calibration curve for the complex.
In this Example, fluorescence of the ANS-albumin complex was obtained by exciting the complex at an excitation maximum of 386 nanometers. […] As is known, the fluorescent probe ANS is highly fluorescent when associated with albumin, but is non-fluorescent when free in solution.
The fluorescence of each of these individual test solutions was monitored as bilirubin-containing test samples were admixed into these individual solutions. […]

Human Serum Albumin [4] = details: cited from earlier work; for first order binding constant KA to human serum albumin: Kragh-Hansen et al. 1974
[5] = 435 nanometers; cited from earlier work
[6] = Molar absorptivity / extinction coefficient; format: physicochemical; details: at or near 590 nanometers
From the text: Among others, there are various direct spectrophotometric assay techniques for bilirubin which take advantage of the molar absorbtivity inherent in bilirubin. That is, bilirubin is a yellow pigment having a molar absorbtivity of about 5 × 10^4 as measured at 435 nanometers. However, although the molar absorbtivity of bilirubin is high enough to be useful in various direct spectrophotometric solution assay techniques, it is not sufficiently high to produce a quantitative assay for bilirubin using "dry chemistry" analytical test elements. Thus, present-day direct spectrophotometric assay techniques for bilirubin are generally limited to solution assay techniques, particularly if accurate, quantitative results are desired. […] In addition, other materials present in bilirubin-containing biological fluids such as human serum can also cause spectral interferences using such direct spectrophotometric assay methods.
In this Example, a solution assay for bilirubin in accord with the method of the present invention is illustrated. The assay of the present Example is similar to that described in Examples 1 and 2 above, except that the present Example illustrates the use of a colorimetric, rather than a fluorometric, assay using bromophenol blue indicator dye as the detectable ligand in the bilirubin-active complex. […]

T1 sequence (P02768 25-609): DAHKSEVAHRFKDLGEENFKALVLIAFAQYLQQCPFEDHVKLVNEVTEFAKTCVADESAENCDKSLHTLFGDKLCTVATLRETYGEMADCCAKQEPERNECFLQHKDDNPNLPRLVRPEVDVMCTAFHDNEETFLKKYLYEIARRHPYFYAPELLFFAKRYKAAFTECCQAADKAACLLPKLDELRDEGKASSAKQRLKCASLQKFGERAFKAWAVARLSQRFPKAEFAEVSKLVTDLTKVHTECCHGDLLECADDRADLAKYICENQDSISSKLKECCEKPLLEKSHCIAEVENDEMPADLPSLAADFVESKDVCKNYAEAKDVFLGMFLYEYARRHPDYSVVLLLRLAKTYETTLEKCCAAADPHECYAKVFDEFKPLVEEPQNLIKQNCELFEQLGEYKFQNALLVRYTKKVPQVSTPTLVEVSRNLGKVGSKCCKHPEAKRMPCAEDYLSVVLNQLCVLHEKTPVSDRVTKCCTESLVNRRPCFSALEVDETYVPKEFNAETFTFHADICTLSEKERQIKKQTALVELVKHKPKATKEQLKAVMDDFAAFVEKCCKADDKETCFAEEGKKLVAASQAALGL

Q: For `C[C@]12CCC(=O)C=C1CC[C@@H]1[C@@H]2[C@@H](O)C[C@]2(C=O)[C@@H](C(=O)CO)CC[C@@H]12` [Aldosterone], which “Binding Constant of primary or high affinity site(s) KA” value (Human Serum Albumin [1]; pH 7.4, 5° C) is on record?
A: The value was < 5000 M⁻¹.

Q: Which results are given for `C=CC1=C(C)/C(=C/c2[nH]c(Cc3[nH]c(/C=C4\NC(=O)C(C)=C4C=C)c(C)c3CCC(=O)O)c(CCC(=O)O)c2C)NC1=O` [Bilirubin]?
A: inhibition at 0.244 µg/mL (HSA [2]; pH 7.4, read-out: decrease in bromophenol blue binding to HSA, standard test solution about 0.0244 mg bilirubin per deciliter added): ~33%; amount of bromophenol blue competitively displaced from the albumin carrier (HSA [2]; standard test solution approximately 10 mg bilirubin per deciliter, compared with 0.0244 mg/dl): substantially higher amount; reduction in fluorescence of ANS/HSA complexes (displacement of ANS) (HSA [3]; 0.066 mg/dl bilirubin added, pH 7.4): drastic reduction in fluorescence; extent of displacement of ANS from albumin (change in fluorescence) versus bilirubin (HSA [3]; 25 micromoles/l ANS, 15 micromoles/l HSA, bilirubin 0.03-0.33 mg/dl): quasi-linearly related to the amount of bilirubin added; Binding Constant of primary or high affinity site(s) KA (Human Serum Albumin [1]; pH 7.4, 25° C): 2.4e+08 M⁻¹; Binding Constant of primary or high affinity site(s) KA (Human Serum Albumin [1]; pH 7.4, 37° C): 1.4e+08 M⁻¹; first order binding constant KA to human serum albumin (Human Serum Albumin [4]): greater than 10^8 M^-1; Kd (Human Serum Albumin [4]; example given for comparison in Example 3, read-out: binding constant to albumin): ~10 nM; molar absorbtivity [5]: about 5 × 10^4

Q: For `O=C1NC(=O)C(c2ccccc2)(c2ccccc2)N1` [Dipheylhydantoin, reference compound], which “Binding Constant of primary or high affinity site(s) KA” value (Human Serum Albumin [1]; pH not given (--), 37° C) is on record?
A: The value was 6000 M⁻¹.

Q: Which “Binding Constant of primary or high affinity site(s) KA” value (Human Serum Albumin [1]; pH 7.4, 5° C) does the source give for `C[C@]12CC[C@@H]3c4ccc(O)cc4CC[C@H]3[C@@H]1CC[C@@H]2O` [Estradiol] here?
A: The value was 100000 M⁻¹.

Q: Which “Binding Constant of primary or high affinity site(s) KA” value (Human Serum Albumin [1]; pH 7.4, 24° C) does the source give for `N[C@@H](Cc1cc(I)c(Oc2cc(I)c(O)c(I)c2)c(I)c1)C(=O)O` [L-thyroxine] here?
A: The value was 10^6 M^-1.

Q: With `N[C@@H](Cc1c[nH]c2ccccc12)C(=O)O` [L-tryptophan] as the compound, how does the “Binding Constant of primary or high affinity site(s) KA” value (Human Serum Albumin [1]; pH 7.4, 2° C) read?
A: Its value is 16000 M⁻¹.

Q: With `CC(=O)[C@H]1CC[C@H]2[C@@H]3CCC4=CC(=O)CC[C@]4(C)[C@H]3CC[C@]12C` [Progesterone] as the compound, how does the “Binding Constant of primary or high affinity site(s) KA” value (Human Serum Albumin [1]; pH 7.4, 5° C) read?
A: The value was 37000 M⁻¹.

Q: With `O=C(O)c1ccccc1` [Sodium benzoate] as the compound, how does the “Binding Constant of primary or high affinity site(s) KA” value (Human Serum Albumin [1]; pH 7.4, 37° C) read?
A: The value was 1700 M⁻¹.

Q: Which “Binding Constant of primary or high affinity site(s) KA” value (Human Serum Albumin [1]; pH 7.4, 37° C) does the source give for `Nc1ccc(S(=O)(=O)Nc2ncccn2)cc1` [Sulfadiazine, reference compound] here?
A: The value was 820 M⁻¹.

Q: With `Cc1noc(NS(=O)(=O)c2ccc(N)cc2)c1C` [Sulfisoxazole, reference compound] as the compound, how does the “Binding Constant of primary or high affinity site(s) KA” value (Human Serum Albumin [1]; pH 7.4, 37° C) read?
A: The value was 19000 M⁻¹.

Q: For `C[C@]12CC[C@H]3[C@@H](CCC4=CC(=O)CC[C@@]43C)[C@@H]1CC[C@@H]2O` [Testosterone], which “Binding Constant of primary or high affinity site(s) KA” value (Human Serum Albumin [1]; pH 7.4, 25° C) is on record?
A: The value was 42000 M⁻¹.

Q: For `O=c1[nH]c(=O)c2[nH]c(=O)[nH]c2[nH]1` [Urate], which “Binding Constant of primary or high affinity site(s) KA” value (Human Serum Albumin [1]; pH 7.4, 37° C) is on record?
A: Its value is 300 M⁻¹.

Q: With `O=S1(=O)OC(c2cc(Br)c(O)c(Br)c2)(c2cc(Br)c(O)c(Br)c2)c2ccccc21` [bromophenol blue, reference compound] as the compound, how does the Kd (HSA [2]) read?
A: Its Kd is 500 nM.

Q: What about the “approximate maximum molar binding ratio of bromophenol blue to HSA” value (HSA [2]; 0.05 M sodium phosphate pH 7.4) of the same compound?
A: The value was “about 3.4”.

Q: What about the extinction coefficient [6] of the same compound?
A: Its extinction coefficient is “approximately 78,000”.

Q: Which “Binding Constant of primary or high affinity site(s) KA” value (Human Serum Albumin [1]; pH 7.4, 23° C) does the source give for `CCCCCCCCCCCCCCCC(=O)O` [palmitate] here?
A: The value was 10^6 M^-1.

Q: For `O=S1(=O)OC(c2ccc(O)cc2)(c2ccc(O)cc2)c2ccccc21` [phenol red, reference compound], which “first order binding constant KA to human serum albumin” value (Human Serum Albumin [4]) is on record?
A: Its value is “about 10^4 M^-1”.

Q: With Gentamicin sulfate [reference compound] as the compound, how does the “Binding Constant of primary or high affinity site(s) KA” value (Human Serum Albumin [1]; pH 7.4, 37° C) read?
A: The value was < 10 M⁻¹.

Q: Which “Binding Constant of primary or high affinity site(s) KA” value (Human Serum Albumin [1]; pH 7.4, 37° C) does the source give for “Polymyzin B sulfate [reference compound]” here?
A: Its value is < 100 M⁻¹.

Source: patent US4069016A, “Assay for bilirubin” (priority 1977, dated 1978)
